Assay results reported in ChEMBL document CHEMBL3885881, “DrugMatrix”.

Species on record: Rattus norvegicus
Assay: DrugMatrix - Regimen: Daily Repeat
Type: toxicity, organism-based, Sprague-Dawley
Parameters: regimen Daily Repeat, gender Male, age 6-8 weeks
Conditions: in vivo, po, route oral GAVAGE, vehicle .5 % CMC; for ABSOLUTE BASOPHIL / ABSOLUTE EOSINOPHIL / ABSOLUTE LYMPHOCYTE / ABSOLUTE MONOCYTE / ABSOLUTE SEGMENTED NEUTROPHIL / BASOPHIL / EOSINOPHIL / ERYTHROCYTE COUNT / HEMATOCRIT / HEMOGLOBIN / LEUKOCYTE COUNT / LYMPHOCYTE / MEAN CORPUSCULAR HEMOGLOBIN / MEAN CORPUSCULAR HEMOGLOBIN CONCENTRATION / MEAN CORPUSCULAR VOLUME / MONOCYTE / NEUTROPHIL / NUCLEATED RED BLOOD CELLS / PLATELET COUNT: tissue Blood; for ALANINE AMINOTRANSFERASE / ALBUMIN / ALKALINE PHOSPHATASE / ASPARTATE AMINOTRANSFERASE / BLOOD UREA NITROGEN / CARBON DIOXIDE / CHLORIDE / CHOLESTEROL / CREATINE PHOSPHOKINASE / CREATININE / GLUCOSE / LACTATE DEHYDROGENASE / LIPASE / PHOSPHORUS / POTASSIUM / SODIUM / TOTAL BILIRUBIN / TOTAL PROTEIN / URIC ACID: tissue Plasma
[1] = 50 mg/kg, 120 h, dose level Low, time 5 day
[2] = 500 mg/kg, 72 h, dose level High, time 3 day
[3] = 500 mg/kg, 120 h, dose level High, time 5 day

CC1(C)[C@H]2CC[C@]1(C)C(=O)C2 [(-)-CAMPHOR]
ABSOLUTE BASOPHIL [1]: 0 CELLS/uL | ABSOLUTE EOSINOPHIL [1]: 46.67 CELLS/uL | ABSOLUTE LYMPHOCYTE [1]: 13460 CELLS/uL | ABSOLUTE MONOCYTE [1]: 0 CELLS/uL | ABSOLUTE SEGMENTED NEUTROPHIL [1]: 2360 CELLS/uL | BASOPHIL [1]: 0% | EOSINOPHIL [1]: 0.33% | ERYTHROCYTE COUNT [1]: 5.24 x10E6/uL | HEMATOCRIT [1]: 32.6% | HEMOGLOBIN [1]: 12.5 G/DL | LEUKOCYTE COUNT [1]: 15.87 x10E3/uL | LYMPHOCYTE [1]: 86.33% | MEAN CORPUSCULAR HEMOGLOBIN [1]: 23.9 pg | MEAN CORPUSCULAR HEMOGLOBIN CONCENTRATION [1]: 38.33 G/DL | MEAN CORPUSCULAR VOLUME [1]: 62.27 fL | MONOCYTE [1]: 0% | NEUTROPHIL [1]: 13.33% | NUCLEATED RED BLOOD CELLS [1]: 0 /100WBC | PLATELET COUNT [1]: 1253.67 x10E3/uL | ALANINE AMINOTRANSFERASE [1]: 61.33 u/L | ALBUMIN [1]: 4.37 G/DL | ALKALINE PHOSPHATASE [1]: 416.33 u/L | ASPARTATE AMINOTRANSFERASE [1]: 88.33 u/L | BLOOD UREA NITROGEN [1]: 18.67 mg/dL | CARBON DIOXIDE [1]: 22.67 mmol/L | CHLORIDE [1]: 102.67 MEQ/L | CHOLESTEROL [1]: 64.33 mg/dL | CREATINE PHOSPHOKINASE [1]: 328 u/L | CREATININE [1]: 0.25 mg/dL | GLUCOSE [1]: 194.33 mg/dL | LACTATE DEHYDROGENASE [1]: 167.67 u/L | LIPASE [1]: 9 u/L | PHOSPHORUS [1]: 12.53 mg/dL | POTASSIUM [1]: 6.26 MEQ/L | SODIUM [1]: 143.3 MEQ/L | TOTAL BILIRUBIN [1]: 0.17 mg/dL | TOTAL PROTEIN [1]: 6.13 G/DL | URIC ACID [1]: 2.63 mg/dL | ABSOLUTE BASOPHIL [2]: 0 CELLS/uL | ABSOLUTE EOSINOPHIL [2]: 155.67 CELLS/uL | ABSOLUTE LYMPHOCYTE [2]: 12828.67 CELLS/uL | ABSOLUTE MONOCYTE [2]: 0 CELLS/uL | ABSOLUTE SEGMENTED NEUTROPHIL [2]: 1649 CELLS/uL | BASOPHIL [2]: 0% | EOSINOPHIL [2]: 1% | ERYTHROCYTE COUNT [2]: 5.48 x10E6/uL | HEMATOCRIT [2]: 34.93% | HEMOGLOBIN [2]: 13.23 G/DL | LEUKOCYTE COUNT [2]: 14.63 x10E3/uL | LYMPHOCYTE [2]: 88.33% | MEAN CORPUSCULAR HEMOGLOBIN [2]: 24.13 pg | MEAN CORPUSCULAR HEMOGLOBIN CONCENTRATION [2]: 37.9 G/DL | MEAN CORPUSCULAR VOLUME [2]: 63.7 fL | MONOCYTE [2]: 0% | NEUTROPHIL [2]: 10.67% | NUCLEATED RED BLOOD CELLS [2]: 0 /100WBC | PLATELET COUNT [2]: 1178.33 x10E3/uL | ALANINE AMINOTRANSFERASE [2]: 50.67 u/L | ALBUMIN [2]: 4.3 G/DL | ALKALINE PHOSPHATASE [2]: 369.33 u/L | ASPARTATE AMINOTRANSFERASE [2]: 74.67 u/L | BLOOD UREA NITROGEN [2]: 14 mg/dL | CARBON DIOXIDE [2]: 26.67 mmol/L | CHLORIDE [2]: 100.33 MEQ/L | CHOLESTEROL [2]: 67.67 mg/dL | CREATINE PHOSPHOKINASE [2]: 382.33 u/L | CREATININE [2]: 0.15 mg/dL | GLUCOSE [2]: 154 mg/dL | LACTATE DEHYDROGENASE [2]: 99 u/L | LIPASE [2]: 9 u/L | PHOSPHORUS [2]: 12.53 mg/dL | POTASSIUM [2]: 6.1 MEQ/L | SODIUM [2]: 145.07 MEQ/L | TOTAL BILIRUBIN [2]: 0.2 mg/dL | TOTAL PROTEIN [2]: 5.93 G/DL | URIC ACID [2]: 1.47 mg/dL | ABSOLUTE BASOPHIL [3]: 0 CELLS/uL | ABSOLUTE EOSINOPHIL [3]: 124.33 CELLS/uL | ABSOLUTE LYMPHOCYTE [3]: 12652.67 CELLS/uL | ABSOLUTE MONOCYTE [3]: 0 CELLS/uL | ABSOLUTE SEGMENTED NEUTROPHIL [3]: 1356.33 CELLS/uL | BASOPHIL [3]: 0% | EOSINOPHIL [3]: 1% | ERYTHROCYTE COUNT [3]: 5.72 x10E6/uL | HEMATOCRIT [3]: 37.43% | HEMOGLOBIN [3]: 14.2 G/DL | LEUKOCYTE COUNT [3]: 14.13 x10E3/uL | LYMPHOCYTE [3]: 89.67% | MEAN CORPUSCULAR HEMOGLOBIN [3]: 24.83 pg | MEAN CORPUSCULAR HEMOGLOBIN CONCENTRATION [3]: 37.93 G/DL | MEAN CORPUSCULAR VOLUME [3]: 65.4 fL | MONOCYTE [3]: 0% | NEUTROPHIL [3]: 9.33% | NUCLEATED RED BLOOD CELLS [3]: 0 /100WBC | PLATELET COUNT [3]: 1132 x10E3/uL | ALANINE AMINOTRANSFERASE [3]: 46.67 u/L | ALBUMIN [3]: 4.47 G/DL | ALKALINE PHOSPHATASE [3]: 355.33 u/L | ASPARTATE AMINOTRANSFERASE [3]: 67.33 u/L | BLOOD UREA NITROGEN [3]: 15 mg/dL | CARBON DIOXIDE [3]: 26.67 mmol/L | CHLORIDE [3]: 101 MEQ/L | CHOLESTEROL [3]: 59 mg/dL | CREATINE PHOSPHOKINASE [3]: 203.33 u/L | CREATININE [3]: 0.17 mg/dL | GLUCOSE [3]: 169.67 mg/dL | LACTATE DEHYDROGENASE [3]: 99.33 u/L | LIPASE [3]: 9 u/L | PHOSPHORUS [3]: 12.5 mg/dL | POTASSIUM [3]: 7.1 MEQ/L | SODIUM [3]: 145.87 MEQ/L | TOTAL BILIRUBIN [3]: 0.2 mg/dL | TOTAL PROTEIN [3]: 6.37 G/DL | URIC ACID [3]: 1.77 mg/dL
